Experimental findings from a melting point compilation (Tetko et al.; mined from patent text by program, amines drawn as free bases though some values may be those of a salt) are described below.

Broadly, the melting point is the temperature of the solid-liquid transition.

Compound `CCCCn1nnnc1-c1c(O)ccc(-c2cccc(C(=O)O)c2)c1O` displayed a melting point of 261 to 264 °C. Compound `COCC(=O)C1CCC2C3CCC4CC(OC(C)=O)CCC4(C)C3C(=O)CC12C` (stereo unspecified) came in with a melting point of 93 °C. Compound `Cn1c(=O)cnn(-c2cc(Cl)c(C(C#N)c3ccc(Cl)cc3)c(Cl)c2)c1=O` (stereo unspecified) returned a melting point of 160 °C.

In turn, `O=C1C(=O)c2ccccc2C2=C1SCC1(CCOCC1)O2` showed a melting point of 195 to 197 °C.

As for `CCS(=O)(=O)c1cc2c(c(C(=O)NCC3CCCN3C)c1)OCCO2` (stereo unspecified), the melting point is 140 to 141 °C. In turn, `CC(C)(C)n1nnc(-c2ccccc2-c2cccc3ccccc23)n1` registered a melting point of 83 to 85 °C. Take `Cc1nc2n(CCN3CCOCC3)c3ccccc3n2c1C(=O)c1ccc(Cl)cc1`: the melting point was in the range of 147 to 148 °C. In turn, `O=C1OCCN1CCCC(c1cc(F)ccc1F)S(=O)(=O)c1ccc(Cl)cc1` (stereo unspecified) showed a melting point of 156 to 159 °C. `CCOC(=O)C=C(C)C=CC=C(C)C=Cc1c(C)cc(OC)c(OC)c1C` yielded a melting point of 203 to 204 °C.

Consider `O=Cc1ccc(C(F)(F)F)cc1Oc1ccccc1`, for which the melting point fell in the range of 57 to 59 °C. Compound `CCCC(=O)c1cnc2c(OC)cccc2c1Nc1cccc(CO)c1C` gave a melting point of 186 to 188 °C. The compound `CC(C)COC(c1cc(Cl)cc([N+](=O)[O-])c1O)c1cc(Cl)cc([N+](=O)[O-])c1O` gave a melting point of 95 °C. The compound `Oc1cccc2ccc(C=Cc3ccccc3)nc12` gave a melting point of 70 to 72 °C. The compound `COc1cccc(C2=CC(=O)N(C)C2=O)c1` registered a melting point of 138 to 146 °C. For `COc1ccc(C(=O)Nc2ccccc2)cc1NCc1cccc(C(=O)O)c1`, the melting point was in the range of 210 to 212 °C.

Compound `COc1ccc(-c2cc3c(OC)cc(OC)cc3nc2OCC#N)cc1` yielded a melting point of 149 to 150 °C. Compound `CCCCCCCCCCCC(=O)OC1CC(c2ccccc2)N(O)C(c2ccccc2)C1C` (stereo unspecified) had a melting point of 84 to 91 °C. The compound `CC(C)Cn1c(CN)nc2c(N)nc3ccccc3c21` showed a melting point of 287 to 291 °C.

In the case of `COc1ccc(CCNC(=O)Cc2ccc(C(=O)c3ccccc3)cc2)cc1OC`, the melting point was in the range of 113 to 114 °C. Consider `COC(C(=O)Nc1cc(Cl)cc(Cl)c1)C(=O)OC(C)(C)C` (stereo unspecified), for which the melting point lay in the range of 130 to 132 °C.

`CCn1nc(OCCCc2ccc(OC(C)C)cc2Oc2ncc(C(F)(F)F)cc2Cl)cc1CCC(=O)O` gave a melting point of 73 to 74 °C.

`O=C(NCc1ccc(Br)cc1)c1cn(N2CCOCC2)c2ccc(CN3CCOCC3)cc2c1=O` came in with a melting point of 200 to 202 °C.

On to `CC(=O)Oc1cccc2c1OC(C)(C)C2`, for which the melting point lay within 49 to 50 °C.

For the compound `Clc1cccc(C2CCN(CCCCOc3ccc4scnc4c3)CC2)c1Cl`, the melting point is 79 to 81 °C.

The compound `CS(=O)(=O)c1ccc(-c2cc(C(F)F)cn2-c2ccc(F)cc2)cc1` registered a melting point of 98 to 100 °C. As to `COC(=O)c1cc(CCCc2cc3c(=O)[nH]c(N)nc3[nH]2)cs1`, the melting point was 182 to 183 °C. In turn, `Cc1cc2cc(CN3CCCC3)cnc2cc1NC(=O)c1ccc(-c2cc3ccccc3o2)cc1` showed a melting point of 219 °C. In turn, `CC1(C)Oc2ccc(C#N)cc2[C@@H](NC2=C(Cl)C(=O)CC2)[C@@H]1O` (relative stereo) had a melting point of 288 to 289 °C. `OCc1c[nH]c(Sc2ccccc2)c1` had a melting point of 69 to 71 °C. To `COc1cccc2c1CCC(C#N)=C2` belongs 47 to 49 °C. Consider `COc1cc(CCNC(=O)[C@@H](NS(C)(=O)=O)C(C)C)ccc1OCc1cccc2ccccc12`, for which the melting point lay in the range of 153 to 157 °C.

The compound `O=C(O)C1c2ccccc2Cc2ccccc21` displayed a melting point of 139 °C. The result for `C1=C(c2c[nH]c3ncccc23)CCN(CCOc2cccc3ncccc23)C1` reads 202 to 205 °C; that for `NCCN1CCC(Nc2nc3ccccc3n2Cc2ccnc3ccccc23)CC1`, 196 °C; that for `Clc1ccc2c(c1)N(c1ncnc3ccc(N4CCOCC4)cc13)CC2`, 277 to 279 °C. Regarding `C=C1N(CCC)C(=O)OC12CCN(CC=C(c1ccccc1)c1ccccc1)CC2`, the melting point was 126 to 127 °C. In the case of `CCOC(=O)C(=CNc1ccn(-c2ccccc2)n1)C(=O)OCC`, the melting point was 81 to 82 °C. The result for `CC(=O)NCC(O)(Cn1cncn1)c1ccc(Cl)cc1Cl` (stereo unspecified) reads 178 to 179 °C; that for `CCCc1c(OCCCOc2cc([N+](=O)[O-])c(Cl)cc2C)ccc(C(C)=O)c1O`, 113 to 115 °C. The result for `COc1cc(CN2CCN(C(=O)c3ccc4c(c3)C(=O)c3ccccc3-4)CC2)cc(OC)c1OC` reads 166 to 168 °C; that for `COc1cc(OC)c2c(=O)[nH]c(-c3ccc(N4CCC(=O)CC4)cc3)nc2n1`, greater than 350 °C; that for `CCOC(=O)NC(=N)c1ccc(-n2cc(C)n(-c3ccc(CCC(=O)OC)cc3)c2=O)cc1`, 198 to 199 °C. `CCCCCCCCCCCCCCCCCCOc1cc(N(CC(=O)OC)CC(=O)OC)cc([N+](=O)[O-])c1` showed a melting point of 68 to 74 °C. To `CC(=O)OC1CCC2C3CCC4=CC(=O)C=C(C)C4(C)C3CCC12C` (stereo unspecified) belongs 144 °C; to `CC(C)S(=O)(=O)c1cnc2c(c1)nc(CC(C)(C)C)n2CC1(O)CCOCC1`, 179 °C. The compound `COc1ccc(CC(C)NC(=O)N(C)O)cc1OC` (stereo unspecified) showed a melting point of 78 to 80 °C.

`O=c1oc(-c2ccccc2)nc2cccc(F)c12`: the melting point lay in the range of 162 to 164 °C. Consider `c1ccc(NC2(c3ccccc3)N=C(c3ccccc3)N=C2c2ccccc2)cc1` (stereo unspecified), for which the melting point was 157 °C. Compound `CC(C)=CCNc1ncnc2nc(NCCN)[nH]c12` came in with a melting point of 96 to 102 °C. For `CCOC(=O)c1c[nH]c(C2CCN(CCC(CN(C)C(=O)c3ccccc3)c3ccc(Cl)c(Cl)c3)CC2)n1` (stereo unspecified), the melting point lay within 96 to 102 °C. To `NC(=O)c1ccc(Nc2nc(OCC3CCCCC3)c3nc[nH]c3n2)cc1` belongs 156 to 158 °C; to `COc1cc(C(C)=O)ccc1OCCCN1CCC(c2n[nH]c3cc(F)ccc23)CC1`, 202 to 204 °C. As to `Cc1cc(Oc2cccc(C(F)(F)F)c2)nn1C(=O)Nc1ccc(F)cc1`, the melting point lay within 70 to 72 °C. `COc1ccc2c(c1)c(CN(O)C(C)=O)c(C)n2C(=O)c1ccc(Cl)cc1` showed a melting point of 160 to 161 °C. `COc1c(N2CCC(N(C)C)C(C)C2)c(F)c(N)c2c(=O)c(C(=O)O)cn(C3CC3)c12` (stereo unspecified) came in with a melting point of 210 °C. In the case of `CN1CCN(c2cc(Cl)cc3c2c(=O)n(Cc2ccccc2[N+](=O)[O-])c(=O)n3Cc2ccccc2)CC1`, the melting point was in the range of 164 to 169 °C.

As to `CCCCn1cc(C2CCN(Cc3ccc(OC)c(C(=O)O)c3)CC2)c2cccnc21`, the melting point lay within 174 to 175 °C.

The compound `CSC(=CC(=O)c1cccc(C(F)(F)F)c1)SC` yielded a melting point of 89.5 °C. Turning to `CC1CCC(C(=O)Nc2ccc(-c3ncc(-c4ccc(NC(=O)C5CCCCCC5)cc4)[nH]3)cc2)CC1` (stereo unspecified), the melting point is 244 to 246 °C. Compound `CC(=NNc1ccc([N+](=O)[O-])cc1)c1ccccc1` returned a melting point of 186 to 188 °C. In turn, `Cc1nc(C)nc(NC(=O)NS(=O)(=O)c2ccccc2Cl)n1` yielded a melting point of 115 to 118 °C.
